{"source": "patent US10770169B2", "about": "“Method of providing a treatment to a subject based on a dynamic pathway map” (THE REGENTS OF THE UNIVERSITY OF CALIFORNIA, priority 2010, dated 2020)", "test_system": "panel of 55 breast cancer cell lines", "assay": "Cell growth inhibition assay (Cell Titer Glo, 72 h, 9 doses; GI50, TGI, LC50)", "assay_type": "cell-based, human", "note": "Where two headings read alike, the source gives them in different places."}
{"smiles": "COc1cc(Nc2c(C#N)cnc3cc(OCCCN4CCN(C)CC4)c(OC)cc23)c(Cl)cc1Cl", "note": "[Bosutinib]", "values": [{"measurement": "GI50", "setting": "Homo sapiens, 600MPE cell line, censored GI50 values, read-out: GI50 (converted)", "value": 8910, "unit": "nM"}, {"measurement": "GI50", "setting": "Homo sapiens, AU565, AU565 cell line, censored GI50 values, read-out: GI50 (converted)", "value": 2140, "unit": "nM"}, {"measurement": "GI50", "setting": "Homo sapiens, AU565, cell line AU565, read-out: GI50 (converted)", "value": 2140, "unit": "nM"}, {"measurement": "GI50", "setting": "Homo sapiens, BT-20, BT20 cell line, censored GI50 values, read-out: GI50 (converted)", "value": 1380, "unit": "nM"}, {"measurement": "GI50", "setting": "Homo sapiens, BT-20, cell line BT20, read-out: GI50 (converted)", "value": 1380, "unit": "nM"}, {"measurement": "GI50", "setting": "Homo sapiens, BT-474, BT474 cell line, censored GI50 values, read-out: GI50 (converted)", "value": 724, "unit": "nM"}, {"measurement": "GI50", "setting": "Homo sapiens, BT-474, cell line BT474, read-out: GI50 (converted)", "value": 724, "unit": "nM"}, {"measurement": "GI50", "setting": "Homo sapiens, BT-483, BT483 cell line, censored GI50 values, read-out: GI50 (converted)", "value": 3550, "unit": "nM"}, {"measurement": "GI50", "setting": "Homo sapiens, BT-483, cell line BT483, read-out: GI50 (converted)", "value": 3550, "unit": "nM"}, {"measurement": "GI50", "setting": "Homo sapiens, CAMA-1, CAMA1 cell line, censored GI50 values, read-out: GI50 (converted)", "value": 3240, "unit": "nM"}, {"measurement": "GI50", "setting": "Homo sapiens, CAMA-1, cell line CAMA1, read-out: GI50 (converted)", "value": 3240, "unit": "nM"}, {"measurement": "GI50", "setting": "Homo sapiens, HCC38, HCC38 cell line, censored GI50 values, read-out: GI50 (converted)", "value": 891, "unit": "nM"}, {"measurement": "GI50", "setting": "Homo sapiens, HCC38, cell line HCC38, read-out: GI50 (converted)", "value": 891, "unit": "nM"}, {"measurement": "GI50", "setting": "Homo sapiens, HCC70, HCC70 cell line, censored GI50 values, read-out: GI50 (converted)", "value": 891, "unit": "nM"}, {"measurement": "GI50", "setting": "Homo sapiens, HCC70, cell line HCC70, read-out: GI50 (converted)", "value": 891, "unit": "nM"}, {"measurement": "GI50", "setting": "Homo sapiens, HCC1143, HCC1143 cell line, censored GI50 values, read-out: GI50 (converted)", "value": 4900, "unit": "nM"}, {"measurement": "GI50", "setting": "Homo sapiens, HCC1143, cell line HCC1143, read-out: GI50 (converted)", "value": 4900, "unit": "nM"}, {"measurement": "GI50", "setting": "Homo sapiens, HCC1187, HCC1187 cell line, censored GI50 values, read-out: GI50 (converted)", "value": 3160, "unit": "nM"}, {"measurement": "GI50", "setting": "Homo sapiens, HCC1187, cell line HCC1187, read-out: GI50 (converted)", "value": 3160, "unit": "nM"}, {"measurement": "GI50", "setting": "Homo sapiens, HCC1419, HCC1419 cell line, censored GI50 values, read-out: GI50 (converted)", "value": 759, "unit": "nM"}, {"measurement": "GI50", "setting": "Homo sapiens, HCC1419, cell line HCC1419, read-out: GI50 (converted)", "value": 759, "unit": "nM"}, {"measurement": "GI50", "setting": "Homo sapiens, HCC1428, HCC1428 cell line, censored GI50 values, read-out: GI50 (converted)", "value": 3890, "unit": "nM"}, {"measurement": "GI50", "setting": "Homo sapiens, HCC1428, cell line HCC1428, read-out: GI50 (converted)", "value": 3890, "unit": "nM"}, {"measurement": "GI50", "setting": "Homo sapiens, HCC1500, HCC1500 cell line, censored GI50 values, read-out: GI50 (converted)", "value": 2570, "unit": "nM"}, {"measurement": "GI50", "setting": "Homo sapiens, HCC1500, cell line HCC1500, read-out: GI50 (converted)", "value": 2570, "unit": "nM"}, {"measurement": "GI50", "setting": "Homo sapiens, HCC1806, HCC1806 cell line, censored GI50 values, read-out: GI50 (converted)", "value": 2090, "unit": "nM"}, {"measurement": "GI50", "setting": "Homo sapiens, HCC1806, cell line HCC1806, read-out: GI50 (converted)", "value": 2090, "unit": "nM"}, {"measurement": "GI50", "setting": "Homo sapiens, HCC1937, HCC1937 cell line, censored GI50 values, read-out: GI50 (converted)", "value": 1450, "unit": "nM"}, {"measurement": "GI50", "setting": "Homo sapiens, HCC1937, cell line HCC1937, read-out: GI50 (converted)", "value": 1450, "unit": "nM"}, {"measurement": "GI50", "setting": "Homo sapiens, HCC1954, HCC1954 cell line, censored GI50 values, read-out: GI50 (converted)", "value": 1170, "unit": "nM"}, {"measurement": "GI50", "setting": "Homo sapiens, HCC1954, cell line HCC1954, read-out: GI50 (converted)", "value": 1170, "unit": "nM"}, {"measurement": "GI50", "setting": "Homo sapiens, HCC2185 cell line, censored GI50 values, read-out: GI50 (converted)", "value": 5010, "unit": "nM"}, {"measurement": "GI50", "setting": "Homo sapiens, HCC3153 cell line, censored GI50 values, read-out: GI50 (converted)", "value": 3800, "unit": "nM"}, {"measurement": "GI50", "setting": "Homo sapiens, LY2 cell line, censored GI50 values, read-out: GI50 (converted)", "value": 2450, "unit": "nM"}, {"measurement": "GI50", "setting": "Homo sapiens, MCF7, MCF7 cell line, censored GI50 values, read-out: GI50 (converted)", "value": 2570, "unit": "nM"}, {"measurement": "GI50", "setting": "Homo sapiens, MCF7, cell line MCF7, read-out: GI50 (converted)", "value": 2570, "unit": "nM"}, {"measurement": "GI50", "setting": "Homo sapiens, MDA-MB-175-VII, MDAMB175VII cell line, censored GI50 values, read-out: GI50 (converted)", "value": 1070, "unit": "nM"}, {"measurement": "GI50", "setting": "Homo sapiens, MDA-MB-361, MDAMB361 cell line, censored GI50 values, read-out: GI50 (converted)", "value": 1510, "unit": "nM"}, {"measurement": "GI50", "setting": "Homo sapiens, MDA-MB-436, MDAMB436 cell line, censored GI50 values, read-out: GI50 (converted)", "value": 5010, "unit": "nM"}, {"measurement": "GI50", "setting": "Homo sapiens, MDA-MB-453, MDAMB453 cell line, censored GI50 values, read-out: GI50 (converted)", "value": 2340, "unit": "nM"}, {"measurement": "GI50", "setting": "Homo sapiens, MDA-MB-468, MDAMB468 cell line, censored GI50 values, read-out: GI50 (converted)", "value": 2570, "unit": "nM"}, {"measurement": "GI50", "setting": "Homo sapiens, SK-BR-3, SKBR3 cell line, censored GI50 values, read-out: GI50 (converted)", "value": 3890, "unit": "nM"}, {"measurement": "GI50", "setting": "Homo sapiens, SUM52PE, SUM52PE cell line, censored GI50 values, read-out: GI50 (converted)", "value": 1450, "unit": "nM"}, {"measurement": "GI50", "setting": "Homo sapiens, SUM149PT, SUM149PT cell line, censored GI50 values, read-out: GI50 (converted)", "value": 759, "unit": "nM"}, {"measurement": "GI50", "setting": "Homo sapiens, SUM1315MO2, SUM1315MO2 cell line, censored GI50 values, read-out: GI50 (converted)", "value": 871, "unit": "nM"}, {"measurement": "GI50", "setting": "Homo sapiens, SUM-159-PT, SUM159PT cell line, censored GI50 values, read-out: GI50 (converted)", "value": 1380, "unit": "nM"}, {"measurement": "GI50", "setting": "Homo sapiens, T47D, T47D cell line, censored GI50 values, read-out: GI50 (converted)", "value": 5620, "unit": "nM"}, {"measurement": "GI50", "setting": "Homo sapiens, UACC-812, UACC812 cell line, censored GI50 values, read-out: GI50 (converted)", "value": 2750, "unit": "nM"}, {"measurement": "GI50", "setting": "Homo sapiens, ZR-75-1, ZR751 cell line, censored GI50 values, read-out: GI50 (converted)", "value": 14100, "unit": "nM"}, {"measurement": "GI50", "setting": "Homo sapiens, ZR-75B, ZR75B cell line, censored GI50 values, read-out: GI50 (converted)", "value": 7080, "unit": "nM"}, {"measurement": "GI50", "setting": "Homo sapiens, cell line 600MPE, read-out: GI50 (converted)", "value": 8910, "unit": "nM"}, {"measurement": "GI50", "setting": "Homo sapiens, cell line HCC2185, read-out: GI50 (converted)", "value": 5010, "unit": "nM"}, {"measurement": "GI50", "setting": "Homo sapiens, cell line HCC3153, read-out: GI50 (converted)", "value": 3800, "unit": "nM"}, {"measurement": "GI50", "setting": "Homo sapiens, cell line LY2, read-out: GI50 (converted)", "value": 2450, "unit": "nM"}]}
{"smiles": "CCc1c2c(nc3ccc(OC(=O)N4CCC(N5CCCCC5)CC4)cc13)-c1cc3c(c(=O)n1C2)COC(=O)[C@]3(O)CC", "note": "[CPT-11]", "values": [{"measurement": "GI50", "setting": "CAMA1 cell line, censored GI50 values, value is the negative log10 of mol/L", "value": 4.84}, {"measurement": "GI50", "setting": "MDAMB157 cell line, censored GI50 values, value is the negative log10 of mol/L", "value": 4.80}, {"measurement": "GI50", "setting": "cell line CAMA1, value is the negative log10 of mol/L", "value": 4.84}, {"measurement": "GI50", "setting": "cell line MDAMB157, value is the negative log10 of mol/L", "value": 4.80}]}
